The source of these data is patent US20110162092A1, “COMPOSITION COMPRISED OF AKAP12 AND USES OF AKAP12 MUTANT ZEBRAFISH AS AN ANIMAL MODEL” (SNU RDB FOUNDATION, priority 2008, published 2011).

For data set [1], the system named is Human Umbilical Vein Endothelial Cells (HUVEC). In words: In vitro permeability assay using HUVEC (RITC-labeled dextran, transwell). The class given is cell-based. To be noted: AKAP12 siRNA group treated with ROCKOUT, 15 minutes incubation.
Data set [2] deals with ve-cadherin. In words: ve-cadherin expression in HUVEC by western-blotting and immunocytochemistry. As to conditions: treated with both siRNA regarding AKAP12 and ROCKOUT. The format is cell-based, human. How it is done: To be specific, in the western-blotting, first, cells were dissolved in lysis buffer containing 10 mM HEPES (pH 7.9), 400 mM NaCl, 0.1 mM EDTA, 5% glycerol, 1 mM DTT (D1-dithiothreitol) and protease inhibitor cocktail, and the proteins in cells were quantified using BCA. From the whole cell lysate prepared as explained above, the proteins in cells were isolated according to molecular weight sizes using sodium dodecyl sulfate-polyacrylamide gel electrophoresis, and the proteins were moved to the polyvinyldifluoride membrane (Millipore). After that, blocking was performed, and the primary antibody was treated overnight (for 16 hours) at 4° C. On the next day, secondary antibodies regarding the primary antibodies were treated at room temperature for 2 hours, respectively, and detected using ECL PLUS (Amersham). As for the primary antibodies, VE-cadherin (Santa Cruz Biotechnology); F-actin (Sigma) were used.
As for the immunochemistry, first, cells were seeded in a 0.1% gelatin-coated slide, rinsed with cold PBS, and fixed for 10 minutes at room temperature with 4% paraformaldehyde. After that, the cells were rinsed again three times with PBS, treated with 0.5% Triton X-100 for 5 minutes, rinsed with PBS-T and underwent blocking at room temperature for 30 minutes with 0.1% blocking solution (Roche). […]

The subject of data set [3] is vein endothelial cells of the AKAP12 knockdown zebrafish. Briefly: Movement of vein endothelial cells of AKAP12 knockdown zebrafish treated with RhoA signal inhibitor. The format is in vivo. As to conditions: 200 uM, 44 hours after fertilization.
Data set [4] deals with zebrafish AKAP12 alpha form. Briefly: Vessel defects of AKAP12 knockdown tg(fli:egfp) zebrafish. The format is in vivo. To be noted: 2 ng morpholino; 2000 kDa tetramethylrhodamine-dextran within 48 to 60 hours. How it is done: The present inventors knocked down the zebrafish AKAP12 alpha and beta forms using the transgenic zebrafish ‘tg(fli:egfp)’ in which green fluoresces selectively in the endothelioyte of the vessels, and observed the defect pattern in the vessels. To be specific, the inventors knocked down the zebrafish AKAP12 alpha and beta forms by microinjecting 2 ng alpha) and 7.5 ng (beta) of morpholino for zebrafish KAAP12 alpha and beta forms, into the transgenic zebrafish ‘fli:egfp’, respectively, and within 48 to 60 hours, microinjected 25 mg/ml of red-fluorescent lysine-fixable tetramethylrhodamine-dextran, 2000 kDa (molecular probes) and observed through the LSM 510 META NLO confocal microscope (Carl Zeiss, Germany).

Data set [5] concerns zebrafish AKAP12 alpha form mRNA. In words: Genetic defect (phenotype) of zebrafish after microinjecting morpholino, alpha form. The format is in vivo. The text has this: (§1) The present inventors prepared morpholino for the zebrafish AKAP12 alpha form mRNA and zebrafish AKAP12 beta form mRNA knockdown. The preparation of the morpholino was ordered to Gene Tools LLC. The method for morpholino preparation is written in Summerton, J. et al., Anti sense & Nucleic Acid Drug Development 7: 187-95, 1997. The prepared morpholino was so prepared to block the characteristic variant regions of each of the alpha and beta forms from binding to the site of splicing and thus block splicing and developing into mature mRNA, in which the alpha form morpholino was so designed to bind adjacent to 339th base of the AKAP12 alpha form as the sequence of […] (SEQ. ID. NO. 7) 25-mer, and the beta form morpholino was so designed to bind adjacent to the 227th base of the AKAP12 beta form as the sequence of […] (SEQ. ID. NO. 8) 25-mer (see FIG. 1).
(§2) The present invention knocked down zebrafish AKAP12 mRNA by microinjecting the prepared morpholino of <Example 3> into the zebrafish and observed the phenotype.
(§3) First, the inventors microinjected 7 ng and 10 ng of morpholino for AKAP12 mRNA alpha form, and microinjected 7.5 ng of morpholino for AKAP12 mRNA beta form.
(§4) Further, after injecting 3.7 ng, 7.5 ng and 10 ng of morpholino for zebrafish AKAP12 alpha and beta forms, the present inventors could confirm that the genetic defect appears in the beta form at about 7.5 ng and alpha form at about 3.7 ng (see FIG. 4).

Data set [6] deals with AKAP12 alpha form mRNA. In words: Zebrafish defect patterns in accordance with morpholino amount, alpha form. The class given is in vivo. The text has this:
(§5) The present inventors knocked down AKAP12 alpha form mRNA and beta form mRNA using morpholino for zebrafish AKAP12 alpha and beta forms, and observed the defect patterns in accordance with the amounts of morpholino, respectively.

For data set [7], the system named is zebrafish AKAP12 alpha form. In words: Micro-vasculature defect in brains of AKAP12 alpha form knockdown tg(fli:egfp) zebrafish. The class given is in vivo. As to conditions: 3 ng morpholino; 10 kDa tetramethylrhodamine-dextran after 3 days. How it is done:
The present inventor knocked down the zebrafish AKAP12 alpha form using the transgenic zebrafish ‘tg(fli:egfp)’ in which green fluoresces selectively in the vein endothelial cells, and observed the defect pattern of the micro-vasculatures in brains. To be specific, the inventors knocked down the zebrafish AKAP12 alpha form by microinjecting 3 ng of morpholino for zebrafish AKAP12 alpha form into the transgenic zebrafish (fli:egfp) embryos, and then after 3 days, microinjected 25 mg/ml of red-fluorescent lysine-fixable tetramethylrhodamine-dextran, 10 kDa through the common cardinal vein of the zebrafish, and then observed through the LSM 510 META NLO confocal microscope (Carl Zeiss, Germany).

Data set [8] has as its system zebrafish AKAP12 alpha form. In words: Hemorrhage of AKAP12 alpha form knockdown zebrafish. The format is in vivo. The text has this: (§6) The present inventors observed the embryos of […] AKAP12 alpha and beta form knockdown zebrafish, and as a result, could observe the bleeding in the 2 to 3 day-old zebrafish.
Data set [9] has as its system zebrafish AKAP12 alpha form. Briefly: Heart defect of AKAP12 alpha form knockdown tg(cmlc:egfp) zebrafish. The class given is in vivo. As to conditions: 3.7 ng morpholino, 1.5 days later. On the procedure:
The present inventors knocked down zebrafish AKAP12 alpha form using the transgenic zebrafish ‘tg(cmlc:egfp)’ in which green fluoresces characteristically to the light chain of the heat muscles, and observed the heart defects of the zebrafish. That is, the inventors knocked down the zebrafish AKAP12 alpha form by microinjecting 3.7 ng of morpholino for zebrafish AKAP12 alpha form into the transgenic zebrafish (‘tg(cmlc:egfp)’) embryos, and observed the hearts of the zebrafish after 1.5 days later using the LSM 510 META NLO confocal microscope Carl Zeiss, Germany).

Data set [10] concerns AKAP12 beta form mRNA. In words: Zebrafish defect patterns in accordance with morpholino amount, beta form. The format is in vivo.
Source text: as §5

The test system of data set [11] is zebrafish AKAP12 beta form mRNA. In words: Genetic defect (phenotype) of zebrafish after microinjecting morpholino, beta form. The class given is in vivo.
Source text: as §1, §2, §3, §4

Data set [12] has as its system zebrafish AKAP12 beta form. In words: Hemorrhage of AKAP12 beta form knockdown zebrafish. The format is in vivo. To be noted: 7.5 ng injected, day 3.
Source text: as §6

The mark [13] stands for this setting: morpholino only, control group of rescue test.

As to `c1ccc2c(-c3ccncc3)c[nH]c2c1` [ROCKOUT], the RITC permeability entry in data set [1] is “decreased permeability”. Moreover, in data set [2], the expression of ve-cadherin entry is reported as “the expression of ve-cadherin increased back”. Further, the “movement of vein endothelial cells” value in data set [3] is given as “the excessive movement of the vein endothelial cells slowed”.
On to “morpholino for zebrafish AKAP12 alpha form: 25-mer morpholino TCTTACCTGTTAGAGTTATTGTCCC (SEQ. ID. NO. 7), binds adjacent to 339th base of AKAP12 alpha form, blocks splicing (all phosphorodiamidate morpholino (PMO))”, for which the “defect pattern in the vessels, dextran leakage” value in [4] is “non-uniform micro-vasculature in the brains and also the red lysine-fixable tetramethylrhodamine-dextran leaked out of the green vessel”. Besides, the “mRNA expression pattern of AKAP12 alpha form by RT-PCR” value in [5] (7 ng and 10 ng injected, by degree of defect) is given as “the zebrafish with severer degree of defects had lower degree of mRNA expression”. In addition, the “phenotype: tail portions and mobility” value in data set [5] (7 ng and 10 ng microinjected) was “crooked or shortened tail portions and abnormal mobility”. Besides, the defect patterns result in [5] (setting [13]) was “crooked trunks and bleeding”; in [5] (only 4 ng morpholino, control group of rat mRNA rescue), “defect patterns including crooked and shortened tail and deformed hearts”. Further, the defect pattern entry in data set [6] (1 ng and 2 ng) was “bleeding only”; in [6] (4 ng and more), “decreasing bleeding due to severe defects of hearts and other veins”; in data set [6] (3 and 4 ng), “both the bleeding and defects in heart and trunk veins”. Also, the “defect pattern of micro-vasculatures in brains, dextran distribution” value in [7] was “non-uniform micro-vasculature in brains and also the red lysine-fixable tetramethylrhodamine-dextran was distributed around the green micro-vasculatures”. Moreover, the “rate of zebrafish showing hemorrhage” value in [8] (3 ng injected, day 3) was “approximately 50%”. Further, the “rate of zebrafish with hemorrhage versus amount” value in data set [8] (1, 2 and 3 ng in sequence) is “hemorrhage increased as the amount of injected morpholino increased”. In addition, the “heart shape (atriums and ventricles)” value in data set [9] is “elongated atriums and ventricles”. For the same compound, in data set [9], the heartbeats result was “non-uniform and weak heartbeats”.
With “morpholino for zebrafish AKAP12 beta form: 25-mer morpholino TACCTTGCCATCTGCGGTTTCTCCA (SEQ. ID. NO. 8), binds adjacent to 227th base of AKAP12 beta form, blocks splicing (all phosphorodiamidate morpholino (PMO))”, the defect pattern result is “both the bleeding and defects of heat and trunk veins concurrently” in data set [10] (7.5 ng and 8 ng); “only the defects in heart and trunk veins” in [10] (9 ng or more). Further, the “amount of morpholino at which the genetic defect appears” value in data set [11] (3.7 ng, 7.5 ng and 10 ng injected) is reported as “about 7.5 ng”. For the same compound, the “phenotype: tail portions and mobility” value in data set [11] (7.5 ng microinjected) is “crooked or shortened tail portions and abnormal mobility”. In addition, in data set [11] (setting [13]), the defect patterns entry was “crooked trunks and bleeding”. In addition, the “rate of zebrafish showing hemorrhage” value in data set [12] is “approximately 27%”.
